Patent US20130131002A1, “COMPOSITIONS AND METHODS FOR TREATING PULMONARY HYPERTENSION” (Georgetown University, priority 2010, published 2013)
“Also recorded” adds a separate entry of the source.

Experiments:
Type in all cases: in vivo, Sprague Dawley rats
[1] = tested on: normal animals without pulmonary hypertension; test: Pulmonary vascular wall thickness (H&E stained lungs) in normoxia control rats
Source text: (§1) All animal studies were approved by the Georgetown University Animal Care and Use Committee. Adult Sprague Dawley rats (200-250 g) were placed in specialized cages connected to the OxyCycler Oxygen Profile Controller (BioSpherix, Redfield, N.Y.) which precisely controls the oxygen and nitrogen contents. Animals were subjected to hypoxic gas (10% O2, balance N2). […] Normoxia control animals are subjected to the same conditions except that they were exposed to ambient O2. All animals were fed normal rat chow during treatment and used in accordance with institutional guidelines.
(§2) After 2-weeks of hypoxia or normoxia treatment, animals were injected intraperitoneally with saline or daunorubicin (20 mg/kg body weight; Sigma-Aldrich, St. Louise, Mo.). After injection, animals were placed back in hypoxia or normoxia condition for 3 days.
(§3) As an indication of the development of pulmonary hypertension, right ventricular hypertrophy was estimated by calculating RV/(LV+S), where RV is the mass of right ventricle, LV is the mass of left ventricle and S is the mass of septum. Right ventricular pressure was measured by inserting a 1.4 F Millar Catheter into the right ventricle at the base of apex using PowerLab 8/30 High Performance Data Acquisition System with Chart Pro in anesthetized and ventilated animals. Pulmonary arterial wall thickening was assessed histologically in hematoxylin and eosin stained lungs. Apoptosis of pulmonary vascular cells was monitored using terminal deoxynucleotidyl transferase dUTP nick end labeling (TUNEL) method.
(§4) Comparisons between the 2 groups were analyzed using a two-tailed Student's t test, and comparisons between 3 or more groups were analyzed by ANOVA with a Student-Newman-Keuls post-hoc test. p<0.05 was considered to be significant. […]
(§5) Comparisons between the 2 groups (2 mg/kg vs. control, or 5 mg/kg vs. control) were analyzed using a two-tailed Student's t test, and comparisons between 3 or more groups were analyzed by ANOVA with a Student-Newman-Keuls post-hoc test. p<0.05 was considered to be significant.

[2] = tested on: rats with hypoxia-induced pulmonary hypertension; test: Pulmonary arterial wall thickening assessed histologically (H&E stained lungs) in chronic hypoxia rats; conditions: vs saline
Source text: as §1, §2, §3, §4, §5

[3] = tested on: pulmonary artery smooth muscle cells; test: Apoptosis of pulmonary vascular cells by TUNEL method in lungs of treated rats; conditions: daunorubicin 20 mg/kg i.p.
Source text: as §1, with “guidelines. […]” for “guidelines.”
as §3

[4] = Overall body weight of treated animals; conditions: lower doses of daunorubicin (2 mg/kg and 5 mg/kg i.p.)

COc1cccc2c1C(=O)c1c(O)c3c(c(O)c1C2=O)C[C@@](O)(C(C)=O)C[C@@H]3O[C@H]1C[C@H](N)[C@H](O)[C@H](C)O1 [daunorubicin]
thickness of the vascular walls in normal animals ([1]; daunorubicin 2 mg/kg i.p.): did not affect the thickness of the vascular walls | thickness of the vascular walls in normal animals ([1]; daunorubicin 5 mg/kg i.p.): did not affect the thickness of the vascular walls | thickness of the vascular walls in normal animals ([1]; daunorubicin 20 mg/kg i.p.): did not affect the thickness of the vascular walls | hypoxia-induced pulmonary vascular wall thickening ([2]; daunorubicin 2 mg/kg i.p. after 2 weeks hypoxia): significantly reducing hypoxia-induced wall thickening; also recorded: significantly reduced hypoxia-induced wall thickening | hypoxia-induced pulmonary vascular wall thickening ([2]; daunorubicin 5 mg/kg i.p. after 2 weeks hypoxia): significantly reducing hypoxia-induced wall thickening; also recorded: significantly reduced hypoxia-induced wall thickening | hypoxia-induced pulmonary vascular wall thickening ([2]; daunorubicin 20 mg/kg i.p. after 2 weeks 10% O2 hypoxia, then 3 more days hypoxia, P<0.05): reduced thickening of pulmonary vascular walls; also recorded: significantly reduced this hypoxia-induced wall thickening | TUNEL-positive (apoptotic) cells in pulmonary vascular walls ([3]; hypoxia-exposed rats, saline controls showed none): induction of apoptosis in pulmonary vascular walls; also recorded: presented TUNEL-positive cells | selectivity of apoptosis induction: thickened vs normal pulmonary vessels ([3]; hypoxia rats (FIG. 3A) vs normoxia rats (FIG. 3B)): can selectively kill pulmonary artery smooth muscle cells involved in thickened vascular walls | overall body weight of the animals [4]: not significantly affecting the overall body weight; also recorded: do not significantly impact the overall body weight
